Data as given in the supplement of paper PMC9663587.

How the values were obtained:
Experiment in all cases: GRmax, 72 h; higher = less effect;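 also: breast cell lines in 384-well plates, nine doses across a 10^4 range, Dye Drop imaging of viable cells vs DMSO and time-zero plates, GR 0 means no net growth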
[1] = tested on: HCC38
[2] = tested on: HCC1937
[3] = tested on: PDXHCI002
[4] = tested on: HCC1395
[5] = tested on: SUM190PT
[6] = tested on: SUM149
[7] = tested on: CAL851
[8] = tested on: SUM1315
[9] = tested on: UACC893
[10] = tested on: MDAMB436
[11] = tested on: HTERT_HME1

CCc1cnn2c(NCc3ccc[n+]([O-])c3)cc(N3CCCC[C@H]3CCO)nc12 (max 1 µM)
GRmax, 72 h [1]: -0.442 GR | GRmax, 72 h [2]: -0.207 GR | GRmax, 72 h [3]: -0.361 GR | GRmax, 72 h [4]: -0.497 GR | GRmax, 72 h [5]: -0.659 GR | GRmax, 72 h [6]: -0.566 GR | GRmax, 72 h [7]: -0.241 GR | GRmax, 72 h [8]: -0.667 GR | GRmax, 72 h [9]: -0.641 GR | GRmax, 72 h [10]: -0.144 GR | GRmax, 72 h [11]: -0.285 GR

CN(C)C/C=C/C(=O)Nc1ccc(C(=O)N2CCC[C@@H](Nc3ncc(Cl)c(-c4c[nH]c5ccccc45)n3)C2)cc1 [THZ531] (max 1 µM)
GRmax, 72 h [1]: -0.337 GR | GRmax, 72 h [2]: -0.282 GR | GRmax, 72 h [3]: -0.198 GR | GRmax, 72 h [4]: -0.587 GR | GRmax, 72 h [5]: -0.725 GR | GRmax, 72 h [6]: -0.509 GR | GRmax, 72 h [7]: -0.196 GR | GRmax, 72 h [8]: -0.602 GR | GRmax, 72 h [9]: -0.417 GR | GRmax, 72 h [10]: 0.018 GR | GRmax, 72 h [11]: -0.217 GR

CN(C)C/C=C/C(=O)Nc1ccc(O[C@@H]2CCC[C@@H](Nc3ncc(Cl)c(-c4c[nH]c5ccccc45)n3)C2)cc1 [BSJ-01-175] (max 10 µM)
GRmax, 72 h [1]: -0.564 GR | GRmax, 72 h [2]: -0.603 GR | GRmax, 72 h [3]: -0.297 GR | GRmax, 72 h [4]: -0.862 GR | GRmax, 72 h [5]: -0.545 GR | GRmax, 72 h [6]: -0.617 GR | GRmax, 72 h [7]: -0.535 GR | GRmax, 72 h [8]: -0.864 GR | GRmax, 72 h [9]: -0.904 GR | GRmax, 72 h [10]: -0.598 GR | GRmax, 72 h [11]: -0.28 GR

C=CCn1c(=O)c2cnc(Nc3ccc(N4CCN(C)CC4)cc3)nc2n1-c1cccc(C(C)(C)O)n1 [AZD1775] (max 10 µM)
GRmax, 72 h [1]: -0.492 GR | GRmax, 72 h [2]: -0.0795 GR | GRmax, 72 h [3]: -0.347 GR | GRmax, 72 h [4]: -0.587 GR | GRmax, 72 h [5]: -0.197 GR | GRmax, 72 h [6]: -0.497 GR | GRmax, 72 h [7]: -0.55 GR | GRmax, 72 h [8]: -0.747 GR | GRmax, 72 h [9]: -0.42 GR | GRmax, 72 h [10]: -0.26 GR | GRmax, 72 h [11]: -0.17 GR

CN1CCN(CCOc2cc(OC3CCOCC3)c3c(Nc4c(Cl)ccc5c4OCO5)ncnc3c2)CC1 [Saracatinib/AZD0530] (max 10 µM)
GRmax, 72 h [1]: 0.614 GR | GRmax, 72 h [2]: 0.651 GR | GRmax, 72 h [3]: 0.0015 GR | GRmax, 72 h [4]: 0.12 GR | GRmax, 72 h [5]: 0.581 GR | GRmax, 72 h [6]: 0.188 GR | GRmax, 72 h [7]: 0.116 GR | GRmax, 72 h [8]: 0.0846 GR | GRmax, 72 h [9]: 0.141 GR | GRmax, 72 h [10]: 0.724 GR | GRmax, 72 h [11]: 0.46 GR

N.N.[Cl][Pt][Cl] [Cisplatin] (max 10 µM)
GRmax, 72 h [1]: -0.103 GR | GRmax, 72 h [2]: 0.006 GR | GRmax, 72 h [3]: -0.0985 GR | GRmax, 72 h [4]: -0.222 GR | GRmax, 72 h [6]: -0.229 GR | GRmax, 72 h [7]: 0.018 GR | GRmax, 72 h [8]: 0.203 GR | GRmax, 72 h [10]: -0.0204 GR | GRmax, 72 h [11]: -0.218 GR

CCOc1cc2ncc(C#N)c(Nc3ccc(OCc4ccccn4)c(Cl)c3)c2cc1NC(=O)/C=C/CN(C)C [Neratinib/HKI272] (max 3.162 µM)
GRmax, 72 h [1]: 0.457 GR | GRmax, 72 h [2]: 0.3 GR | GRmax, 72 h [3]: -0.161 GR | GRmax, 72 h [4]: 0.0167 GR | GRmax, 72 h [5]: 0.42 GR | GRmax, 72 h [6]: 0.155 GR | GRmax, 72 h [7]: -0.326 GR | GRmax, 72 h [8]: 0.114 GR | GRmax, 72 h [9]: -0.901 GR | GRmax, 72 h [10]: 0.0162 GR | GRmax, 72 h [11]: 0.0983 GR

CNC(=O)c1cccc(-c2ccc3c(N4CCOC[C@@H]4C)nc(N4CCOC[C@@H]4C)nc3n2)c1 [AZD2014] (max 10 µM)
GRmax, 72 h [1]: 0.195 GR | GRmax, 72 h [2]: 0.366 GR | GRmax, 72 h [3]: 0.489 GR | GRmax, 72 h [4]: 0.274 GR | GRmax, 72 h [5]: -0.514 GR | GRmax, 72 h [6]: 0.418 GR | GRmax, 72 h [7]: 0.114 GR | GRmax, 72 h [8]: 0.0994 GR | GRmax, 72 h [9]: -0.164 GR | GRmax, 72 h [10]: 0.519 GR | GRmax, 72 h [11]: 0.143 GR

CO[C@@H](C)Cn1c(=O)n(C)c2cnc3ccc(-c4cncc(C(C)(C)O)c4)cc3c21 (max 10 µM)
GRmax, 72 h [1]: -0.0301 GR | GRmax, 72 h [2]: 0.0369 GR | GRmax, 72 h [3]: -0.0949 GR | GRmax, 72 h [4]: -0.0122 GR | GRmax, 72 h [5]: -0.5 GR | GRmax, 72 h [6]: -0.0342 GR | GRmax, 72 h [7]: -0.0445 GR | GRmax, 72 h [8]: -0.216 GR | GRmax, 72 h [9]: -0.84 GR | GRmax, 72 h [10]: 0.323 GR | GRmax, 72 h [11]: 0.0519 GR

CCN1CCN(Cc2ccc(Nc3ncc(F)c(-c4cc(F)c5nc(C)n(C(C)C)c5c4)n3)nc2)CC1 (max 10 µM)
GRmax, 72 h [1]: -0.327 GR | GRmax, 72 h [2]: 0.302 GR | GRmax, 72 h [3]: -0.677 GR | GRmax, 72 h [4]: -0.52 GR | GRmax, 72 h [5]: -0.582 GR | GRmax, 72 h [6]: 0.0962 GR | GRmax, 72 h [7]: -0.224 GR | GRmax, 72 h [8]: -0.144 GR | GRmax, 72 h [9]: -0.22 GR | GRmax, 72 h [10]: -0.333 GR | GRmax, 72 h [11]: 0.0156 GR

O=C(c1cc(Cc2n[nH]c(=O)c3ccccc23)ccc1F)N1CCN(C(=O)C2CC2)CC1 [Olaparib/AZD2281] (max 10 µM)
GRmax, 72 h [1]: 0.425 GR | GRmax, 72 h [2]: 0.685 GR | GRmax, 72 h [3]: 0.265 GR | GRmax, 72 h [4]: 0.0945 GR | GRmax, 72 h [5]: 0.545 GR | GRmax, 72 h [6]: 0.205 GR | GRmax, 72 h [7]: 0.387 GR | GRmax, 72 h [8]: 0.0911 GR | GRmax, 72 h [9]: 0.549 GR | GRmax, 72 h [10]: 0.238 GR | GRmax, 72 h [11]: 0.591 GR

COc1cc([C@@H]2c3cc4c(cc3[C@@H](O[C@@H]3O[C@@H]5CO[C@@H](C)O[C@H]5[C@H](O)[C@H]3O)[C@H]3COC(=O)[C@H]23)OCO4)cc(OC)c1O [Etoposide] (max 10 µM)
GRmax, 72 h [1]: -0.424 GR | GRmax, 72 h [2]: -0.118 GR | GRmax, 72 h [3]: -0.179 GR | GRmax, 72 h [4]: -0.225 GR | GRmax, 72 h [6]: -0.196 GR | GRmax, 72 h [7]: -0.241 GR | GRmax, 72 h [8]: 0.0416 GR | GRmax, 72 h [10]: -0.157 GR | GRmax, 72 h [11]: -0.384 GR

Cc1c(N)nc([C@H](CC(N)=O)NC[C@H](N)C(N)=O)nc1C(=O)N[C@H](C(=O)N[C@H](C)[C@@H](O)[C@H](C)C(=O)N[C@H](C(=O)NCCc1nc(-c2nc(C(=O)NCCC[S+](C)C)cs2)cs1)[C@@H](C)O)[C@@H](OC1OC(CO)C(O)C(O)C1OC1OC(CO)C(O)C(OC(N)=O)C1O)c1cnc[nH]1 (some centres not stated) [Bleomycin] (max 10 µM)
GRmax, 72 h ([1]; main component drawn): -0.232 GR | GRmax, 72 h ([2]; main component drawn): 0.139 GR | GRmax, 72 h ([3]; main component drawn): -0.12 GR | GRmax, 72 h ([4]; main component drawn): -0.402 GR | GRmax, 72 h ([6]; main component drawn): -0.315 GR | GRmax, 72 h ([7]; main component drawn): -0.107 GR | GRmax, 72 h ([8]; main component drawn): 0.149 GR | GRmax, 72 h ([10]; main component drawn): -0.12 GR | GRmax, 72 h ([11]; main component drawn): -0.111 GR
